{
  "source": "paper PMC5826917",
  "about": "“A small molecule inhibitor of Nicotinamide N-methyltransferase for the treatment of metabolic disorders” (Scientific Reports, 2018)",
  "key": {"mice on a high-fat diet": {"test_system": "mice on a high-fat diet", "parameters": "method as in PMID 29155147", "settings": "treatment period of 12 days; cited from earlier work"}, "db/db mice [1]": {"test_system": "db/db mice", "test": "Chronic efficacy study in db/db mice", "settings": "db/db mice", "method": "Samples for MNA were analyzed employing a fit-for-purpose LC-MS/MS method. PE-Sciex API-4000 triple quadrupole (PerkinElmerSciex Instruments, Boston, MA) mass spectrometer was employed for this analysis. Samples (5 µL) were injected onto Kinetex HILIC (50 × 4.6 mm, 2.6 µm; Phenomenex, Torrance, CA, USA) column connected to Shimadzu VP (Shimadzu, Japan) LC system. The gradient mobile phase mixture of 0.2% formic acid and acetonitrile was delivered at a flow rate of 0.45 ml min-1 into the mass spectrometer electrospray ionization (ESI) chamber. Quantitation was achieved by MS/MS detection in positive ion mode for MNA and internal standard (d4–MNA). Detection of the ions was performed in the multiple reaction monitoring (MRM) mode, monitoring the transition of the m/z 137 precursor ion to the m/z 92 product ion for MNA and m/z 141 precursor ion to the m/z 84 product ion for d4-MNA (internal standard).\nA simple protein precipitation extraction method was followed for extraction of N-methylnicotinamide from plasma and various tissue homogenate samples. The tissue samples were homogenized with 1:3 proportions of phosphate buffer saline (PBS) and this homogenate was used for N-Methylnicotinamide determinations. To an aliquot of ~50 μL of plasma/ liver homogenate/ adipose tissue homogenate samples ~300 µl of acetonitrile containing IS (d4-MNA) solution was added, followed by vortex for ~3 minutes and centrifuged for 10 minutes at 14,000 rpm. The supernatant was separated and transferred to pre-labeled HPLC vials and analyzed by LC-MS/MS system.\nSamples for methylated JBSNF-000088 were analyzed employing a fit-for-purpose LC-MS/MS method. PE-Sciex API-5500 triple quadrupole (PerkinElmerSciex Instruments, Boston, MA) mass spectrometer was employed for this analysis. Samples (2 µL) were injected onto Atlantis dC18 (50 × 4.6 mm, 3 µm; Waters, Milford, MA, USA) column connected to Shimadzu VP (Shimadzu, Japan) LC system. The gradient mobile phase mixture of 0.2% formic acid and acetonitrile was delivered at a flow rate of 0.9 mL min-1 into the mass spectrometer electrospray ionization (ESI) chamber. Quantitation was achieved by MS/MS detection in positive ion mode for methylated JBSNF-000088 and internal standard (Tolbutamide). Detection of the ions was performed in the multiple reaction monitoring (MRM) mode, monitoring the transition of the m/z 168 precursor ion to the m/z 128.8, product ion for MNA and m/z 271 precursor ion to the m/z 91 product ion for tolbutamide (internal standard).\nMale C57BL6/N (Vivo Bio Tech Ltd, India), ob/ob (B6.V-Lepob/OlaHsd) and its lean control (Envigo laboratories Inc, USA) and db/db (BKS.Cg- + Leprdb/ + Leprdb/OlaHsd) and its lean control (Envigo laboratories Inc, USA) were housed in individually ventilated cages (n = 5/cage) under standard laboratory conditions. The study room environment was maintained at a temperature of 21–24 °C and, relative humidity at 40–70%. The animal rooms were maintained under 12 h light and dark cycle. Animals were provided with ad libitum access to water and food (except where noted otherwise, e.g. during fasting prior for glucose tolerance tests, fasting prior to terminal sacrifice). Animals were acclimatized for 1 week before initiation of studies. For Diet induced obesity (DIO) mice study, C57BL6/N mice were maintained on rodents chow diet (Teklad; Harlan) or HFD (60% Kcal; Research diet) for 14 weeks before study initiation and throughout the study period. ob/ob and db/db mice and their lean controls were maintained on rodents chow diet (Teklad; Harlan). All the experiments were approved by Institutional Animal Ethics Committee (IAEC) of Jubilant Biosys Ltd, India.\nLean control + Vehicle and HFD + Vehicle Control groups (G1 and G2) mice were administered with vehicle."}, "NNMT": {"target": "T1, NNMT (Homo sapiens, UniProt P40261)", "T1 sequence (P40261 1-264)": "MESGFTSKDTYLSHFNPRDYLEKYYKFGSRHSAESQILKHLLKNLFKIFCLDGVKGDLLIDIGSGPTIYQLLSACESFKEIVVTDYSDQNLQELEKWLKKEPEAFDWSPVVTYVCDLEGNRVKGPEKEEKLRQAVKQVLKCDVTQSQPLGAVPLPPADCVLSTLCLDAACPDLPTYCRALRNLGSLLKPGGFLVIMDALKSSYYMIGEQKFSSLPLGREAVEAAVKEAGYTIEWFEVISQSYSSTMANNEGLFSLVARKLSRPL", "test": "NNMT inhibition by the N-methylated product", "assay_type": "biochemical"}, "db/db mice [2]": {"test_system": "db/db mice", "parameters": "method as in PMID 12217892, PMID 25256010", "settings": "two weeks of treatment at 100 µg/kg bid; cited from earlier work"}},
  "data": [
    {"compound": "C[n+]1cccc2c(N)cccc21", "note": "[5-Amino-1-methylquinoline]", "values": [
      {"measurement": "body weight", "setting": "mice on a high-fat diet", "result": "causes weight loss at preserved food intake"}
    ]},
    {"compound": "COc1ccc(C(N)=O)c[n+]1C", "note": "[N-methylated product of JBSNF-000088, -carbamoyl-2-methoxy-1-methylpyridin-1-ium trifluoromethanesulfonate]", "values": [
      {"measurement": "detection of methylated compound after oral administration of JBSNF-000088", "setting": "db/db mice [1]", "result": "could be detected in plasma and adipose tissue"},
      {"measurement": "IC50", "setting": "NNMT", "result": "> 30", "unit": "µM"},
      {"measurement": "inhibition at 30 µM", "setting": "NNMT; at 30 µM", "result": 20, "unit": "%"}
    ]},
    {"compound": "liraglutide", "values": [
      {"measurement": "effect on body weight", "setting": "db/db mice [2]", "result": "no effect on body weight"},
      {"measurement": "influence on glucose homeostasis", "setting": "db/db mice [2]", "result": "moderate influence on glucose homeostasis"}
    ]}
  ]
}
